We go through 5 molecules from patent US11026426B2, “Oxadiazole and phenol derivatives as antibacterial and/or herbicidal agents” (NORTHERN ILLINOIS RESEARCH FOUNDATION, priority 2017, dated 2021).

In data set [1] the target is T1, Mycobacterium tuberculosis IspD (MtIspD) (Mycobacterium tuberculosis, UniProt P9WKG9).
T1 sequence (P9WKG9 1-231): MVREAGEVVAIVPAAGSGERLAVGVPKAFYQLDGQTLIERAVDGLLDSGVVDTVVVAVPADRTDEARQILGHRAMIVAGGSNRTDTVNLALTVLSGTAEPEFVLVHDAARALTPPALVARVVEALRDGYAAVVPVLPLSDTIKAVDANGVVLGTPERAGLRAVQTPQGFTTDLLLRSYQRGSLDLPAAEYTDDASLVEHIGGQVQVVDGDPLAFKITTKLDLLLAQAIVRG
The data set can be described thus: Thermal shift assay against MtIspD. Format: binding.

The target of data set [2] is Lycopersicon esculentum IspE (LeIspE) (Solanum lycopersicum, UniProt P93841). As to the kind of experiment: Thermal shift assay against LeIspE. Format: binding.
Chain of Lycopersicon esculentum IspE (LeIspE) (P93841 89-401): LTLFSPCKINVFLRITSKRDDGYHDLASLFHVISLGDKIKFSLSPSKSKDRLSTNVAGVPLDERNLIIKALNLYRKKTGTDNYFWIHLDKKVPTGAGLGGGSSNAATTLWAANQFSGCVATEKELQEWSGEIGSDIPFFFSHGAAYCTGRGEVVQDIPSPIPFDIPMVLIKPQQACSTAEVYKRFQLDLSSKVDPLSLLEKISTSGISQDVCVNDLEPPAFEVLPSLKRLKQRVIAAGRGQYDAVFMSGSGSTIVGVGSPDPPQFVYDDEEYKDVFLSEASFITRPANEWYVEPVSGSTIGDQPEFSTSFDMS
In another data set the test system is lettuce seeds. The data set can be described thus: Lettuce leaf assay. Format: in vivo. The arrangement: key: 0 (no effect); 5(complete inhibition or bleaching). To be noted: ranking 0-5. From the text:
The lettuce leaf assay is a qualitative assay used to determine the relative effectiveness of the test compounds at inhibition of germination of seeds and root development as well as causing bleaching of leaves. Isoprenoid synthesis is vital in plants as isoprene-product gibberellins are a class of growth hormones in plants responsible for stimulating cell elongation and division. In addition, some carotenoids are involved in photosynthesis as components of the electron transport chain. MEP pathway inhibitors have the potential to prevent synthesis of these necessary cellular components and growth hormones resulting in inhibition of germination and root development as well as causing chlorosis, or bleaching in the leaves. The lettuce leaf assay, explores the effects of compounds as potential MEP pathway inhibitors by evaluating the effect on bleaching, root development, and germination of lettuce seeds, which all rely on isoprenoid biosynthesis. […] The assay is a qualitative assay and the effects are given rankings from 0 (no effect) to 5 (complete inhibition or bleaching). In this assay, compounds are dissolved in a volatile organic solvent and applied to filter paper in a petri dish. The solvent is allowed to evaporate and lettuce seeds are applied followed by the addition of 5 mL of water to obtain the necessary concentrations. Seeds are allowed to grow and they are observed on day 3 and day 4 for evaluation.

The target in another data set is AtIspD (Arabidopsis thaliana, UniProt P69834). The data set can be described thus: University of Hamburg photometric enzymatic inhibition assay AtIspD. The class given is biochemical. To be noted: read-out: AtIspD IC50. The protocol:
(§1) Compounds were subjected to a photometric enzymatic assay to test for inhibition of the plant enzymes Arabidopsis thaliana IspD and IspF, and IspE from Lycopersicon esculentum.
The procedure for AtIspD enzymatic inhibition assay, was performed by making an assay mixture of 100 mM Tris hydrochloride at pH 8.0 with 10 mM MgCl2, 1 mM dithiothreitol, 2.5 mM potassium phosphoenol pyruvate, 2.1 mM CTP, 2 mM ATP, 1 mM of (2R,3S)-2,3-dihydroxy-4-oxopentyl phosphate, 460 μM NADH, 1.1% (v/v) DMSO, 0.4 U IspE, 1 U lactate dehydrogenase, 1 U pyruvate kinase and 2.4 mU IspD in 180 μL of solution. Solutions were incubated at 27° C. and monitored photometrically. By preparing the assay mixture with a large excess of IspE compared to IspD, any inhibition of IspE by the test inhibitor would be insignificant compared to IspD and therefore the rate of the reaction is determined by IspD activity.

The target in a further data set is LeIspE (Solanum lycopersicum, UniProt P93841). As to the kind of experiment: University of Hamburg photometric enzymatic inhibition assay LeIspE. The class given is biochemical, Lycopersicon esculentum. To be noted: read-out: LeIspE IC50. The protocol:
as §1
The IspE assay conditions were very similar to the IspD assay in which the assay mixture was composed of 100 mM Tris hydrochloride at pH 8.0 with 10 mM MgCl2, 1 mM dithiothreitol, 2.5 mM potassium phosphoenol pyruvate, 2 mM ATP, 1 mM of 4-Diphosphocytidyl-2-C-methylerythritol, 460 μM NADH, 1.1% (v/v) DMSO, 2.4 mU IspE, 1 U lactate dehydrogenase, 1 U pyruvate kinase in 180 μL of solution. Solutions were incubated at 27° C. and monitored photometrically.

Another data set deals with AtIspF (Arabidopsis thaliana, UniProt Q9CAK8). The data set can be described thus: University of Hamburg photometric enzymatic inhibition assay AtIspF. The class given is biochemical. To be noted: read-out: AtIspF IC50. As for the experimental part: as §1
Chain of AtIspF (Q9CAK8 53-231): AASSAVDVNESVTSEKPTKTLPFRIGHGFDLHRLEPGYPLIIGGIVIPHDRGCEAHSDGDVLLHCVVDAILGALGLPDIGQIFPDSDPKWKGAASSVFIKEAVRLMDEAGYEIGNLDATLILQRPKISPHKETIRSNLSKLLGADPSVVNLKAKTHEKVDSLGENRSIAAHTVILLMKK
The IspF assay mixture conditions were as follows: 100 mM Tris hydrochloride at pH 8.0 with 10 mM MgCl2, 1 mM dithiothreitol, 2.5 mM potassium phosphoenol pyruvate, 2 mM ATP, 1 mM of 4-diphosphocytidyl-2C methylerythritol 2-phosphate, 460 μM NADH, 1.1% (v/v) DMSO, 0.5 U CMP kinase, 2.4 mU IspF, 1 U lactate dehydrogenase, 1 U pyruvate kinase in 180 μL of solution. Solutions were incubated at 27° C. and monitored photometrically.

In data set [3] the test system is Burkholderia thailandensis. Format: cell-based. To be noted: preliminary screening, score 0-3.
A further data set concerns Mycobacterium smegmatis. The data set can be described thus: Antibacterial preliminary screening MS. Also: key: 0 represents no inhibition; 3 is comparable to commercial antibiotic control. To be noted: score 0-3. Format: cell-based.
The test system of a further data set is Corynebacterium xerosis. As to the kind of experiment: Antibacterial preliminary screening CX. Also: key: 0 represents no inhibition; 3 is comparable to commercial antibiotic control. The class given is cell-based. To be noted: score 0-3.
Data set [4] concerns Corynebacterium pseudodiphtheriae. As to the kind of experiment: Antibacterial preliminary screening CP.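 Also: 0 is no inhibition and 3 matches the commercial antibiotic control.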 Format: cell-based. To be noted: score 0-3.
A further data set has as its system Escherichia coli. The data set can be described thus: Antibacterial preliminary screening EC. Also: key: 0 represents no inhibition; 3 is comparable to commercial antibiotic control. The class given is cell-based. To be noted: score 0-3.
The next data set concerns Klebsiella pneumonia. The data set can be described thus: Antibacterial preliminary screening KP. Also: key: 0 represents no inhibition; 3 is comparable to commercial antibiotic control. Format: cell-based. To be noted: score 0-3.
The next data set deals with Micrococcus luteus. The data set can be described thus: Antibacterial preliminary screening ML. Also: key: 0 represents no inhibition; 3 is comparable to commercial antibiotic control. To be noted: score 0-3. The class given is cell-based.
The test system of the next data set is Bacillus cereus. The data set can be described thus: Antibacterial preliminary screening BC. Also: key: 0 represents no inhibition; 3 is comparable to commercial antibiotic control. The class given is cell-based. To be noted: score 0-3.
For another data set, the system named is Pseudomonas aeruginosa. As to the kind of experiment: Antibacterial preliminary screening PA. Also: key: 0 represents no inhibition; 3 is comparable to commercial antibiotic control. The class given is cell-based. To be noted: score 0-3.

Molecules are shown by their SMILES. Where only a bound is given, the exact number is not on record here.

Chain of LeIspE (P93841 89-401): as the sequence (P93841 89-401) above
Chain of AtIspD (P69834 62-302): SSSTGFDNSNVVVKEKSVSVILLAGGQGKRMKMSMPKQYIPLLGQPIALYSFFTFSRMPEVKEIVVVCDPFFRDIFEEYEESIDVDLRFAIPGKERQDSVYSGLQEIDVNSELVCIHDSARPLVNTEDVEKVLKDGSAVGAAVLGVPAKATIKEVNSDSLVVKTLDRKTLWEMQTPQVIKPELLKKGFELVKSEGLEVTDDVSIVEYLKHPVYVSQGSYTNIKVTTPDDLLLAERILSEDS

By IC50 is commonly meant the concentration that gives 50% inhibition. The melting point is the temperature, or range, at which the solid turns liquid. As for `c1ccc(Cc2nnc(-c3cc4ccccc4[nH]3)o2)cc1` [HGN-221, 2-benzyl-5-(1H-indol-2-yl)-1,3,4-oxadiazole], the melting point lay in the range of 211 to 215 °C. Besides, in data set [1], the “MtIspD melting point change” value turned out to be 0.5 °C and the MtIspD melting temp came out at 48.5 °C. In data set [2], the “LeIspE melting point change” value came out at 0.00 °C and the LeIspE melting temp came to 49.50 °C. In the data set with lettuce seeds (0.15 mM), the Bleaching is 0, the Germination is 0 and the “Root Dev.” value turned out to be 0. Further, in the data set on lettuce seeds (0.3 mM), the Bleaching is recorded as 0, the Germination stood at 0 and the “Root Dev.” value was determined as 0. Moreover, the IC50 at AtIspD was determined as 636 ± 68 µM. Moreover, at LeIspE, the half-inhibitory concentration (IC50) was more than 1000 µM. For the same molecule, the IC50 at AtIspF was more than 1000 µM. This molecule also came in with a BT score in data set [3] of 0. Further, the MS score in the data set with Mycobacterium smegmatis is 0. In the data set on Corynebacterium xerosis, this molecule gave a CX score of 0. In addition, the CP score in data set [4] came out at 0. Further, the EC score with Escherichia coli turned out to be 0. In addition, the KP score in the data set with Klebsiella pneumonia is on record as 0. Also, the ML score in the data set on Micrococcus luteus was 0. For the same molecule, the BC score in the data set on Bacillus cereus is 0. Further, in the data set on Pseudomonas aeruginosa, the PA score came out at 0.
In turn, `CC(C)(C)c1nnc(-c2cc3ccccc3[nH]2)o1` [HGN-239, 2-(tert-butyl)-5-(1H-indol-2-yl)-1,3,4-oxadiazole] yielded a melting point of 163 to 168 °C. Further, in data set [1], the MtIspD melting temp amounted to 49.5 °C. In [2], the “LeIspE melting point change” value was −2.50 °C and the LeIspE melting temp was found to be 47.00 °C. Further, in the data set on lettuce seeds (0.5 mM), the Bleaching was 0, the Germination amounted to 0 and the “Root Dev.” value is on record as 0. For the same molecule, in the data set with lettuce seeds (1.0 mM), the Bleaching is listed as 0, the Germination stood at 1 and the “Root Dev.” value turned out to be 0. Besides, the half-inhibitory concentration (IC50) on AtIspD was more than 1000 µM. For the same molecule, the half-inhibitory concentration (IC50) on LeIspE is more than 1000 µM. On AtIspF, the concentration for half-maximal inhibition (IC50) is more than 1000 µM. The BT score in data set [3] was 0. Also, the MS score with Mycobacterium smegmatis amounted to 0. In the data set with Corynebacterium xerosis, this molecule gave a CX score of 0. This molecule displayed a CP score in data set [4] of 0. Further, in the data set on Escherichia coli, the EC score is on record as 0. This molecule returned a KP score with Klebsiella pneumonia of 0. Besides, the ML score in the data set on Micrococcus luteus turned out to be 0. In the data set with Bacillus cereus, the BC score is recorded as 0. This molecule displayed a PA score with Pseudomonas aeruginosa of 0.
As for `CC(C)c1nnc(-c2cc3ccccc3[nH]2)o1` [HGN-240, 2-(1H-indol-2-yl)-5-isopropyl-1,3,4-oxadiazole], the melting point was in the range of 164 to 170 °C. In data set [1], the “MtIspD melting point change” value was determined as 0.8 °C and the MtIspD melting temp is 48.8 °C. Further, in data set [2], the “LeIspE melting point change” value was −1.50 °C and the LeIspE melting temp came to 48.00 °C. For the same molecule, in the data set with lettuce seeds (0.5 mM), the Bleaching turned out to be 0, the Germination came to 1 and the “Root Dev.” value worked out at 0. Besides, in the data set on lettuce seeds (1.0 mM), the Bleaching was found to be 0, the Germination was 2 and the “Root Dev.” value is on record as 0. Besides, on AtIspD, the IC50 is more than 1000 µM. Further, the IC50 on LeIspE was more than 1000 µM. For the same molecule, at AtIspF, the IC50 is more than 1000 µM. In addition, the BT score in data set [3] is 0. This molecule yielded an MS score in the data set with Mycobacterium smegmatis of 0. The same molecule had a CX score in the data set with Corynebacterium xerosis of 0. In addition, the CP score in [4] is 0. In the data set on Escherichia coli, the EC score amounted to 0. This molecule showed a KP score in the data set with Klebsiella pneumonia of 0. In the data set on Micrococcus luteus, this molecule had an ML score of 0. In the data set with Bacillus cereus, this molecule came in with a BC score of 0. In the data set with Pseudomonas aeruginosa, the PA score came out at 0.
Take `Clc1cccc(-c2nnc(-c3cc4ccccc4[nH]3)o2)c1` [HGN-241, 2-(3-chlorophenyl)-5-(1H-indol-2-yl)-1,3,4-oxadiazole]: the melting point is 202 to 207 °C. In data set [1], the “MtIspD melting point change” value is 0.5 °C and the MtIspD melting temp amounted to 48.5 °C. In data set [2], the “LeIspE melting point change” value was −1.75 °C and the LeIspE melting temp amounted to 47.75 °C. In addition, in the data set on lettuce seeds (0.2 mM), the Bleaching is listed as 0, the Germination is reported as 1 and the “Root Dev.” value amounted to 0. For the same molecule, the IC50 at AtIspD is more than 1000 µM. For the same molecule, the half-inhibitory concentration (IC50) on LeIspE came to 149 ± 41 µM. Further, at AtIspF, the concentration for half-maximal inhibition (IC50) was more than 1000 µM. Besides, the BT score in data set [3] is 0. Also, in the data set with Mycobacterium smegmatis, the MS score is 0. Moreover, the CX score in the data set with Corynebacterium xerosis is 0. This molecule showed a CP score in data set [4] of 0. This molecule also had an EC score with Escherichia coli of 0. Besides, the KP score in the data set on Klebsiella pneumonia is given as 0. For the same molecule, the ML score with Micrococcus luteus stood at 0. Besides, the BC score with Bacillus cereus is on record as 0. The same molecule gave a PA score with Pseudomonas aeruginosa of 0.
The molecule `Cc1ccc(-c2nnc(-c3cc4ccccc4[nH]3)o2)cc1` [HGN-242, 2-(1H-indol-2-yl)-5-(p-tolyl)-1,3,4-oxadiazole] returned a melting point of 228 to 234 °C. Further, in data set [1], the “MtIspD melting point change” value was 0.8 °C and the MtIspD melting temp was 48.8 °C. For the same molecule, in data set [2], the “LeIspE melting point change” value was −1.75 °C and the LeIspE melting temp was determined as 47.75 °C. For the same molecule, in the data set on lettuce seeds (0.5 mM), the Bleaching came out at 0, the Germination was 2 and the “Root Dev.” value is listed as 0. In addition, in the data set with lettuce seeds (1.0 mM), the Bleaching is on record as 0, the Germination is on record as 4 and the “Root Dev.” value came out at 0. In addition, the IC50 at AtIspD came to 225 ± 17 µM. The half-maximal inhibitory concentration (IC50) on LeIspE came out at 109 ± 35 µM. Moreover, the IC50 at AtIspF was more than 1000 µM. This molecule also yielded a BT score in data set [3] of 0. Besides, the MS score with Mycobacterium smegmatis amounted to 0. In addition, the CX score with Corynebacterium xerosis was 0. The molecule also gave a CP score in [4] of 0. Moreover, the EC score with Escherichia coli is reported as 0. The KP score with Klebsiella pneumonia is 0. This molecule had an ML score with Micrococcus luteus of 0. Also, the BC score in the data set on Bacillus cereus amounted to 0. The molecule further yielded a PA score in the data set on Pseudomonas aeruginosa of 0.
